The record followed here is patent US20080200507A1, “Crystalline Non-Solvated Methanesulfonic Acid Salt of 1-(4-(2-Piperidinylethoxy)Phenoxy)-2-(3-Hydroxyphenyl)-6-Hydroxynaphthalene” (priority 2005, published 2008).

Data set [1] in a line: In situ salt screening, aqueous in situ solubility. The class given is physicochemical. To be noted: crystalline salts. An excerpt:
In general, as aqueous solubility increases, the potential for absorption of the drug in the gut (and ultimate bioavailability) increases as well. Higher bioavailability can result in lower variability in clinical exposure and thus give the physician an advantage in correctly dosing-the patient within the therapeutic window. Using the aqueous in situ solubility as a guide, and the robustness of the same crystalline form isolated via automation, the crystalline mesylate, lactate, tartrate and phosphate salts of GS II were identified as candidates for further evaluation. Separately, the crystalline acetate salt of GS II was identified and also further characterized.

Data set [2] is described as follows: Thermogravimetric analysis (volatiles / weight loss). The class given is physicochemical. To be noted: 25 to 216° C.
The nature of data set [3]: Moisture adsorption / hygroscopicity. The class given is physicochemical.
The target of data set [4] is endogenous ER receptors in Ishikawa human endometrial tumor cells (Homo sapiens, UniProt P03372). Description: Ishikawa Cell Proliferation Assay (alkaline phosphatase endpoint), agonist and antagonist mode. The class given is cell-based. To be noted: read-out: agonist response (percentage efficacy versus tamoxifen). The protocol: Ishikawa Cell Proliferation Assay:
This assay measures cell proliferation in both an agonist mode in the presence of a salt of the present invention alone, and in an antagonist mode in which the ability of a salt of the present invention to block estradiol stimulation of growth is measured. This assay utilizes Ishikawa human endometrial tumor cells and measures agonist and antagonist effects on endogenous ER receptors via an alkaline phosphatase endpoint (Littlefield et al., Endocrinology, 127:2757-2762, 1990). Alkaline phosphatase activity is measured as an endpoint for relative estrogenic stimuli in both an agonist mode and antagonist mode, where the ability of a test compound to block estradiol stimulatory activity is measured (Bramlett, K S, Burris, J., Steroid Biochem. Molec. Biol., 86:27-34, 2003). […]
The plates are dried for 5 minutes and frozen at −70° C. for at least 1 hour. […] After a twenty minute incubation, plates are read on a spectrophotometer at 405 nm. […] For the agonist mode, a percentage efficacy for the test compound is calculated versus the response to 100 nM tamoxifen alkaline phosphatase stimulation as: 100×(test compound-control)/(tamoxifen-control). For the antagonist mode, a percentage efficacy for the test compound is calculated versus E2 (1 nM) alone as: 100×(E2-test compound)/(E2-control).

Data set [5] in a line: Salt forms administered to monkeys, blood levels of GS II and its conjugates. To be noted: compared among crystalline acetate, mesylate, lactate and phosphate salts, methanesulfonate. The class given is in vivo. As to the method:
Four of these salts (the crystalline acetate, mesylate, lactate and phosphate salts of GS II) were administered to monkeys and blood levels of GS II and its conjugates were measured. […] Some additional physical properties of crystalline non-solvated GS II mesylate are disclosed below in Table 1.

Data set [6] has as its system estrogen-induced response (uterine weight/body weight ratio) in female Sprague Dawley (SD) rats. Description: 3-Day Rat Uterine Antagonist. The class given is in vivo. To be noted: 72 h, oral, 3 days, with EE 0.1 mg/kg, two assays, same value on both occasions, read-out: ED50 (inhibition of estrogen-induced uterine weight response). As to the method:
3-Day Rat Uterine Antagonist
Female Sprague Dawley (SD) rats, 6 per group and 19 to 21 days of age, are orally treated with ethinyl estradiol (EE; 0.1 mg/kg) and 10, 1, 0.1, or 0.01 mg/kg test compound for 3 days. Test compound is dissolved in 20% w/v β-hydroxycyclodextrin in water and administered by oral gavage in a volume of 0.2 mL daily (15 minutes prior to the EE gavage). Groups of 6 rats are also given vehicle as a negative control and EE alone as a positive control. The animals are fasted overnight following the final dose. On the following morning, the animals are weighed and then euthanized (by carbon dioxide asphyxiation) and the uteri are rapidly collected (via a midline ventral incision), stripped of adipose tissue, removed luminal fluid by blotting onto absorbant paper, and weighed.
Uterine weight/body weight ratios (UWR) are calculated for each animal. The percentage inhibition of the estrogen-induced response is then calculated by the following formula: percent inhibition=100×(UWREE−UWRtest compound/UWREE−UWRcontrol). ED50 values are derived from a semi-log regression analysis of the linear aspect of the dose response curve.

The subject of data set [7] is ovariectomized SD female rats (uterine wet weight, BMC, BMD). The experiment in a line: 8-Week Mature OVX Rat Uterine and Bone Effects. The class given is in vivo. The protocol: 8-Week Mature OVX Rat Uterine and Bone Effects
Virgin 6-month-old, SD female rats (Harlan, Ind.) weighing about 270 g are randomized to treatment groups and bilateral ovariectomies are performed using isoflurane anesthesia. Treatment is initiated 3 days after ovariectomy. Groups are orally dosed each day for 8 weeks with GS II mesylate in a vehicle of 20% hydroxypropyl-β-cyclodextrin (Aldrich Chemical Co., Milwaukee, Wis.). Vertebrae and femora are excised at necropsy and the mid-transverse section of the lumbar vertebra L-4 and distal femur metaphysis is scanned in 50% ethanol/saline, using quantitative computed tomography (QCT) (Research M, Norland/Stratec, Pt. Atkinson, Wis.). Cross-sectional area (X-Area), bone mineral content (BMC, mg), and volumetric BMD (vBMD, mg/cm^3) are quantitated, using voxel dimensions of 148×148×500 μm as previously described (Sato M., Bone, 17:157S-162S, 1995). Bone measurements are carried out by computed tomography (CT) scans on the distal femur metaphysis (cancelous bone measurement) and the […] lumbar vertebrae (Sato, 1995 and Sato, et al., J. Med. Chem., 42:1-24, 1999).

Setting [8] is: dose as low as 0.01 mg/kg, 8 weeks (distal femur metaphysis).

Structures can show the parent of a compound that is named as a salt.

Sequence of endogenous ER receptors in Ishikawa human endometrial tumor cells (P03372 whole entry): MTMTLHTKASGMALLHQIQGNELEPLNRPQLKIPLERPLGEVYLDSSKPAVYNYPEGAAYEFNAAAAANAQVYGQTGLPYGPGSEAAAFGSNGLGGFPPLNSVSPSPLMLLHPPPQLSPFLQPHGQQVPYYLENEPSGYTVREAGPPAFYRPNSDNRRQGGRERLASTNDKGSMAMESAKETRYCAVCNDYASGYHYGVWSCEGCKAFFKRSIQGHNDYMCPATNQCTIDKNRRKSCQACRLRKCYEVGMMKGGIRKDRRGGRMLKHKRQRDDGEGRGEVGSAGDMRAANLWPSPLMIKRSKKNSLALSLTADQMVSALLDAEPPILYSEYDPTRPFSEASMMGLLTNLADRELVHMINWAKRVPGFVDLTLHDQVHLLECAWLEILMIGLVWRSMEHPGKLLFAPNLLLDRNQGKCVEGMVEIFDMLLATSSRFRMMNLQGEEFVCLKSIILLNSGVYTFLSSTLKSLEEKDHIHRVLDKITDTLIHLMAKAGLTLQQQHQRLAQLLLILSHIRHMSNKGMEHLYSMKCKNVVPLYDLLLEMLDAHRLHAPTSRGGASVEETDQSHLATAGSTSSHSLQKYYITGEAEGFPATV

Take tosylate: in data set [1], the “in situ aqueous solubility” value is listed as “relatively low”.

What is called ED50 is the dose at which the effect has come halfway, by size or by number of responders. As for `Oc1cccc(-c2ccc3cc(O)ccc3c2Oc2ccc(OCCN3CCCCC3)cc2)c1` [crystalline non-solvated GS II mesylate, 1-(4-(2-piperidinylethoxy)phenoxy)-2-(3-hydroxyphenyl)-6-hydroxynaphthalene, methanesulfonate], in data set [2], the “% Volatiles (Thermo Gravimetric Analysis)” value is on record as <1% (25 to 216° C.). In addition, the hygroscopicity result in data set [3] is “non-hygroscopic”. For the same compound, in data set [3] (80% RH), the “% Moisture Adsorbed @80% RH” value was below 1%. Besides, the Emax in data set [4] was 13.8%. Also, in data set [5] (listed as crystalline mesylate salt), the “in vivo exposure of GS II (ng hr/ml of GS II and of its conjugates)” value was “largest in vivo exposure”. For the same compound, the “in vivo exposure of GS II (ng hr/ml of GS II and of its conjugates)” value in data set [5] was “significant in vivo exposure”. In data set [6], the ED50 stood at 0.22 mg/kg. Also, in data set [7] (8 weeks, lumbar vertebra), the “BMC changes in the vertebrae” value was “statistical significance for BMC changes were not achieved” and the “BMD preservation in the vertebrae” value was “BMD preservation was also seen”. Also, the “uterine stimulation over OVX control” value in data set [7] (10-mg/kg dose, 8 weeks, in comparison to ovary intact (sham operated) rats) turned out to be 8.7%. In data set [7] (setting [8]), the “preservation of BMC” value is listed as “significant preservation” and the “preservation of BMD” value was “significant preservation”. The “Changes in uterine wet weight” value in data set [7] (oral daily, after 8 weeks of treatment) is on record as “minimal”.

Consider fumarate, for which the “in situ aqueous solubility” value in data set [1] is reported as “relatively low”.
